Results: PubChem BioAssay (NCI)
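GI50 is the concentration that inhibits growth by half. Definition used: TGI = concentration required for complete inhibition of growth.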

Columns and labels:
Experiment in all cases: DTP human tumour cell line panel, 384-well format
A498 renal = system: A498 renal
A549 NSCLC = system: A549 NSCLC
ACHN renal = system: ACHN renal
BT-549 breast = system: BT-549 breast
CAKI-1 renal = system: CAKI-1 renal
COLO 205 colon = system: COLO 205 colon
DU-145 prostate = system: DU-145 prostate
EKVX NSCLC = system: EKVX NSCLC
HCC-2998 colon = system: HCC-2998 colon
HCT-116 colon = system: HCT-116 colon
HCT-15 colon = system: HCT-15 colon
HOP-62 NSCLC = system: HOP-62 NSCLC
HOP-92 NSCLC = system: HOP-92 NSCLC
HS 578T breast = system: HS 578T breast
HT29 colon = system: HT29 colon
IGROV1 ovarian = system: IGROV1 ovarian
KM12 colon = system: KM12 colon
LOX IMVI melanoma = system: LOX IMVI melanoma
M14 melanoma = system: M14 melanoma
MALME-3M melanoma = system: MALME-3M melanoma
MCF7 breast = system: MCF7 breast
MDA-MB-231 breast = system: MDA-MB-231 breast
MDA-MB-435 melanoma = system: MDA-MB-435 melanoma
MDA-MB-468 breast = system: MDA-MB-468 breast
MOLT-4 leukemia = system: MOLT-4 leukemia
NCI-H226 lung = system: NCI-H226 lung
NCI-H23 lung = system: NCI-H23 lung
NCI-H322M lung = system: NCI-H322M lung
NCI-H460 NSCLC = system: NCI-H460 NSCLC
NCI-H522 lung = system: NCI-H522 lung
NCI/ADR-RES ovarian = system: NCI/ADR-RES ovarian
OVCAR-3 ovarian = system: OVCAR-3 ovarian
OVCAR-4 ovarian = system: OVCAR-4 ovarian
OVCAR-5 ovarian = system: OVCAR-5 ovarian
OVCAR-8 ovarian = system: OVCAR-8 ovarian
PC-3 prostate = system: PC-3 prostate
RPMI-8226 leukemia = system: RPMI-8226 leukemia
RXF 393 renal = system: RXF 393 renal
SF-268 CNS = system: SF-268 CNS
SF-295 CNS = system: SF-295 CNS
SF-539 CNS = system: SF-539 CNS
SK-MEL-28 melanoma = system: SK-MEL-28 melanoma
SK-MEL-5 melanoma = system: SK-MEL-5 melanoma
SK-OV-3 ovarian = system: SK-OV-3 ovarian
SN12C renal = system: SN12C renal
SNB-19 CNS = system: SNB-19 CNS
SNB-75 CNS = system: SNB-75 CNS
SR leukemia = system: SR leukemia
T-47D breast = system: T-47D breast
TK-10 renal = system: TK-10 renal
U251 glioblastoma = system: U251 glioblastoma
UACC-257 melanoma = system: UACC-257 melanoma
UACC-62 melanoma = system: UACC-62 melanoma

Structure (SMILES): COc1ccc(COc2cc3oc(=O)c4cc(C(C)O)ccc4c3cc2OC)cc1 (stereo unspecified)
- GI50 (A498 renal): 12.2 µM
- TGI (A498 renal): 35 µM
- GI50 (A549 NSCLC): 18.6 µM
- TGI (A549 NSCLC): > 100 µM
- GI50 (ACHN renal): 23 µM
- TGI (ACHN renal): 61.2 µM
- GI50 (BT-549 breast): 6.81 µM
- TGI (BT-549 breast): 20.5 µM
- GI50 (CAKI-1 renal): 18.6 µM
- TGI (CAKI-1 renal): 60.8 µM
- GI50 (COLO 205 colon): > 100 µM
- TGI (COLO 205 colon): > 100 µM
- GI50 (DU-145 prostate): 41.6 µM
- TGI (DU-145 prostate): > 100 µM
- GI50 (EKVX NSCLC): 12.2 µM
- TGI (EKVX NSCLC): 43.2 µM
- GI50 (HCC-2998 colon): 14.6 µM
- TGI (HCC-2998 colon): > 100 µM
- GI50 (HCT-116 colon): 9.41 µM
- TGI (HCT-116 colon): > 100 µM
- GI50 (HCT-15 colon): 3.57 µM
- TGI (HCT-15 colon): > 100 µM
- GI50 (HOP-62 NSCLC): 8.11 µM
- TGI (HOP-62 NSCLC): 24.5 µM
- GI50 (HOP-92 NSCLC): 11.3 µM
- TGI (HOP-92 NSCLC): 30.1 µM
- GI50 (HS 578T breast): 5.56 µM
- TGI (HS 578T breast): 19.3 µM
- GI50 (HT29 colon): 6.91 µM
- TGI (HT29 colon): > 100 µM
- GI50 (IGROV1 ovarian): 15.3 µM
- TGI (IGROV1 ovarian): 35.7 µM
- GI50 (KM12 colon): 8.27 µM
- TGI (KM12 colon): > 100 µM
- GI50 (LOX IMVI melanoma): 17 µM
- TGI (LOX IMVI melanoma): > 100 µM
- GI50 (M14 melanoma): 8.95 µM
- TGI (M14 melanoma): > 100 µM
- GI50 (MALME-3M melanoma): 15.8 µM
- TGI (MALME-3M melanoma): > 100 µM
- GI50 (MCF7 breast): 5.21 µM
- TGI (MCF7 breast): 22.2 µM
- GI50 (MDA-MB-231 breast): 20.3 µM
- TGI (MDA-MB-231 breast): 77.5 µM
- GI50 (MDA-MB-435 melanoma): 2.09 µM
- TGI (MDA-MB-435 melanoma): 4.71 µM
- GI50 (MDA-MB-468 breast): 4.9 µM
- TGI (MDA-MB-468 breast): 25.2 µM
- GI50 (MOLT-4 leukemia): 5.6 µM
- TGI (MOLT-4 leukemia): > 100 µM
- GI50 (NCI-H226 lung): 15.2 µM
- TGI (NCI-H226 lung): 33.8 µM
- GI50 (NCI-H23 lung): 11.9 µM
- TGI (NCI-H23 lung): 36.9 µM
- GI50 (NCI-H322M lung): 20.4 µM
- TGI (NCI-H322M lung): 71.4 µM
- GI50 (NCI-H460 NSCLC): 5.65 µM
- TGI (NCI-H460 NSCLC): 85.9 µM
- GI50 (NCI-H522 lung): 5.04 µM
- TGI (NCI-H522 lung): 16.4 µM
- GI50 (NCI/ADR-RES ovarian): 4.8 µM
- TGI (NCI/ADR-RES ovarian): 59.4 µM
- GI50 (OVCAR-3 ovarian): 10.1 µM
- TGI (OVCAR-3 ovarian): 24.7 µM
- GI50 (OVCAR-4 ovarian): 3.41 µM
- TGI (OVCAR-4 ovarian): 12.3 µM
- GI50 (OVCAR-5 ovarian): 61.2 µM
- TGI (OVCAR-5 ovarian): > 100 µM
- GI50 (OVCAR-8 ovarian): 12.6 µM
- TGI (OVCAR-8 ovarian): 54.2 µM
- GI50 (PC-3 prostate): 24.9 µM
- TGI (PC-3 prostate): 93.1 µM
- GI50 (RPMI-8226 leukemia): 16.3 µM
- TGI (RPMI-8226 leukemia): > 100 µM
- GI50 (RXF 393 renal): 5.55 µM
- TGI (RXF 393 renal): 19.5 µM
- GI50 (SF-268 CNS): 4.6 µM
- TGI (SF-268 CNS): 16 µM
- GI50 (SF-295 CNS): 10.4 µM
- TGI (SF-295 CNS): 30.6 µM
- GI50 (SF-539 CNS): 7.79 µM
- TGI (SF-539 CNS): 20.6 µM
- GI50 (SK-MEL-28 melanoma): 55.3 µM
- TGI (SK-MEL-28 melanoma): > 100 µM
- GI50 (SK-MEL-5 melanoma): 3.62 µM
- TGI (SK-MEL-5 melanoma): 12.5 µM
- GI50 (SK-OV-3 ovarian): 3.89 µM
- TGI (SK-OV-3 ovarian): 21.2 µM
- GI50 (SN12C renal): 20 µM
- TGI (SN12C renal): 90.1 µM
- GI50 (SNB-19 CNS): 7.73 µM
- TGI (SNB-19 CNS): 20.8 µM
- GI50 (SNB-75 CNS): 6.65 µM
- TGI (SNB-75 CNS): 20.3 µM
- GI50 (SR leukemia): 1.87 µM
- TGI (SR leukemia): 5.69 µM
- GI50 (T-47D breast): 10.6 µM
- TGI (T-47D breast): 61.5 µM
- GI50 (TK-10 renal): 10.5 µM
- TGI (TK-10 renal): 25.6 µM
- GI50 (U251 glioblastoma): 7.43 µM
- TGI (U251 glioblastoma): 24.8 µM
- GI50 (UACC-257 melanoma): 24.3 µM
- TGI (UACC-257 melanoma): 94.6 µM
- GI50 (UACC-62 melanoma): 8.49 µM
- TGI (UACC-62 melanoma): 22.8 µM
